According to patent US20090082329A1 (AVENTIS PHARMA S.A., priority 2006, published 2009):
Like-named read-outs stand apart in the source and are kept apart here.

How the values were obtained:
MEF-IGF1R cells = assay: Proliferation/viability of MEF-IGF1R (Thymidine [14C] incorporation); assay type: cell-based; conditions: rhIGF1 100 ng/mL, incubation 72 hours, read-out: Test C IC50
Experimental: C) Measurement of the Proliferation/Viability of MEF-IGF1R
Cell culture: the MEF-IGF1R cells (stable clone of cells transfected with the receptor hIGF-1R) are cultured at 37° C. under 5% CO2 in EMEM medium containing 10% FCS.
Test procedure: the cells are seeded at 5000 cells per well in 96-well Cytostar plates (Amersham) with 0.2 mL of EMEM culture medium at 37° C. for 18 hours. The cells are then washed twice with EMEM medium and left to culture without serum for 24 hours. The compounds are then added at various concentrations in the presence of rhIGF1 (100 ng/mL) and 0.1 μCi of Thymidine [^14C] (specific activity ˜50 mCi/mmol) to give 0.2 mL of volume per well. After incubation for 72 hours in the presence of the compound, at 37° C. under 5% CO2, the incorporation of Thymidine [^14C] is measured by counting the radioactivity on a Microbeta trilux counter (Perkin-Elmer). The IC50 is determined from 10 increasing concentrations of the compound.
(§1) (i) The tests are performed in duplicate and the mean of the two tests is calculated.
(§2) (ii) The value of the signal of the maximum response is calculated from the positive control: cells stimulated with IGF1 without compound.
(§3) (iii) Value of the signal of the minimum response is calculated from the negative control: cells not stimulated with IGF1 without compound.
(§4) (iv) By using these values as maximum (100%) and minimum (0%), respectively, the data were normalized so as to give a percentage of the maximum response.
(§5) (v) A curve of dose response is plotted and the IC50 (the concentration of which the compound induces a 50% decrease in the signal) of the compound is calculated by non-linear regression analysis.

[1] = biological target: T1, human cytoplasmic domain of IGF-1R (Homo sapiens, UniProt P08069); assay: Kinase IGF-1R test: inhibition of autophosphorylation of the enzyme (HTRF); assay type: biochemical; conditions: ATP 120 μM
T1 construct: The human cytoplasmic domain of IGF-1R was cloned by fusion with glutathione S-transferase (GST); made in house; host or cells: SF21 insect cells (baculovirus, pFastBac-GST)
T1 sequence (P08069 960-1367 limits assumed): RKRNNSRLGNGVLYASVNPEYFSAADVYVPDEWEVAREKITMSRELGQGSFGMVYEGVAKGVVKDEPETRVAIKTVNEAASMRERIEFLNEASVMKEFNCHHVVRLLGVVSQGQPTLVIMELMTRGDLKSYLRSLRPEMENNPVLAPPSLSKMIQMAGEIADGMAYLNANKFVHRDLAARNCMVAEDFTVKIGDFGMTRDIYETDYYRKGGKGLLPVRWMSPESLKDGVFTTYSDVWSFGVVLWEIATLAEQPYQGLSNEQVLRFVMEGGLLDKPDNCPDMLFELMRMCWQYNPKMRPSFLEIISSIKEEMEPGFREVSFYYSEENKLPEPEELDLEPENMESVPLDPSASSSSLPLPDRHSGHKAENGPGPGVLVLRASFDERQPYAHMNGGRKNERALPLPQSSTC
Experimental: A) Experimental Protocol for the Kinase IGF-1R Test:
The inhibitory activity of the compounds on IGF1R is determined by measuring the inhibition of autophosphorylation of the enzyme using a time-resolved fluorescence test (HTRF). The human cytoplasmic domain of IGF-1R was cloned by fusion with glutathione S-transferase (GST) in the baculovirus expression vector pFastBac-GST. The protein is expressed in the SF21 cells and purified to about 80% homogeneity. For the enzymatic test, the test compound at 10 mM dissolved in DMSO is diluted in ⅓ steps in a 50 mM Hepes, pH 7.5, 5 mM MnCl2, 50 mM NaCl, 3% Glycerol, 0.025% Tween 20 buffer. To measure the inhibition, the successive dilutions of the compound are preincubated for 30 minutes and 90 minutes in the presence of 5 nM of enzyme, the final DMSO concentration not exceeding 1%. The enzymatic reaction is initiated to have a final ATP concentration of 120 μM, and is stopped after 5 minutes by addition of 100 mM Hepes, pH 7.0 buffer containing 0.4 M of potassium fluoride, 133 mM EDTA, 0.1% BSA, the XL665-labelled antibody anti-GST and the anti-phosphotyrosine antibody conjugated to europium cryptate Eu—K (Cis-Bio Int.). The characteristics of the two fluorophores, XL-665 and Eu—K, are available in G. Mathis et al., Anticancer Research, 1997, 17, pages 3011-3014. The energy transfer between the excited europium cryptate to the acceptor XL665 is proportional to the degree of autophosphorylation of IGF-1R. The specific long-lasting signal of XL-665 is measured in a GENios Pro TECAN plate counter. The inhibition of autophosphorylation of IGF-1R at time 30 minutes and 90 minutes with the test compounds of the invention is calculated relative to a 1% in DMSO control, whose activity is measured in the absence of compound. The curve representing the percentage of inhibition as a function of the log of the concentration is established to determine the concentration corresponding to 50% inhibition (IC50),

IGF-1R in MCF7 cells = IGF-1R in MCF7 cells (Homo sapiens, UniProt P08069); assay: Autophosphorylation of IGF-1R in MCF7 cells after stimulation with IGF-1 (ELISA); assay type: cell-based; design: endogenous in cells; host or cells: MCF-7 cells; conditions: MCF-7 cells, compound added one hour before stimulation with IGF1; read-out: Test B IC50
Sequence of IGF-1R in MCF7 cells (P08069 31-1367): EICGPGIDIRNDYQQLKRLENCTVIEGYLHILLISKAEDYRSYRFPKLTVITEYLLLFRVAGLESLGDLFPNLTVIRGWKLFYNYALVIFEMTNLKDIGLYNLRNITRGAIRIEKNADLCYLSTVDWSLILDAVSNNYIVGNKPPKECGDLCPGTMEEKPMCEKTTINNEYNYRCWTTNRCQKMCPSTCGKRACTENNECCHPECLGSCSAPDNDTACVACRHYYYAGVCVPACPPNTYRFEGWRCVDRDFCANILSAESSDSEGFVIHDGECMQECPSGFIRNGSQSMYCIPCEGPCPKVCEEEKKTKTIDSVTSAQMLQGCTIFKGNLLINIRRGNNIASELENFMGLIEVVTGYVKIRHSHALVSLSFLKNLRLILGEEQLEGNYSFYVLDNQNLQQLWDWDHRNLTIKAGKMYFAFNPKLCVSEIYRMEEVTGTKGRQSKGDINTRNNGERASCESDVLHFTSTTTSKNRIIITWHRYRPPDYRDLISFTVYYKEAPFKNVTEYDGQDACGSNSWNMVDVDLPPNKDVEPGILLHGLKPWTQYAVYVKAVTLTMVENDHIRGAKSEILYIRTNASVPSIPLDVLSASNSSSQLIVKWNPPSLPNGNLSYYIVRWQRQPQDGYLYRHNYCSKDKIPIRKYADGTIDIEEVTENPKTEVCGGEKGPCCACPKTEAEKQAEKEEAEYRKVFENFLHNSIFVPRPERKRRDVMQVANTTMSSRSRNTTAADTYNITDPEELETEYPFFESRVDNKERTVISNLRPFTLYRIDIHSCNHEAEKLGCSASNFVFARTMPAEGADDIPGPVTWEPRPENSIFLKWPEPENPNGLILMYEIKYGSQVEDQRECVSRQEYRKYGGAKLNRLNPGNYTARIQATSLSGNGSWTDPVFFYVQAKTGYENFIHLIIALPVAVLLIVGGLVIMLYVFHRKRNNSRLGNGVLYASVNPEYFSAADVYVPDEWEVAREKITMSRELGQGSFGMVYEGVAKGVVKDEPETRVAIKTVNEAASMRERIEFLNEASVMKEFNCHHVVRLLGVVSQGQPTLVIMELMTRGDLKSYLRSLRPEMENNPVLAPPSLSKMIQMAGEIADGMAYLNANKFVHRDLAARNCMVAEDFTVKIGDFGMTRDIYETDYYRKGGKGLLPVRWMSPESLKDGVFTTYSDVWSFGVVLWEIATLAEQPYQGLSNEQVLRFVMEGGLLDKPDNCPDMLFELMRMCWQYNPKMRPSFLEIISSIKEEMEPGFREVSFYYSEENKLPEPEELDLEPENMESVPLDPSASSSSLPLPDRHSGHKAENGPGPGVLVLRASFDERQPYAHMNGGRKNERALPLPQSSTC
Experimental: B) Measurement of the Autophosphorylation of IGF-1R in MCF7 Cells after Stimulation with IGF-1
Cell Culturing and Execution of the Test:
The autophosphorylation of IGF1R in the IGF1-induced cells is evaluated by means of an ELISA technique (Enzyme Linked ImmunoSorbent Assay). The MCF-7 are seeded at 60 000 cells per well in 6-well plates and incubated at 37° C., 5% CO2 in medium containing 10% serum. After one night in 10% serum, the cells are deprived of serum for 24 hours. The compounds are added to the medium one hour before stimulation with IGF1. After 10 minutes of stimulation with IGF1, the cells are lysed with a buffer (Hepes 50 mM pH 7.6, Triton X100 1%, orthovanadate 2 mM, protease inhibitor cocktail). The cell lysates are incubated on a 96-well plate precoated with an anti-IGF1R antibody, followed by incubation with an anti-phosphotyrosine antibody coupled to the enzyme peroxidase. The level of peroxidase activity (measured by OD with a luminescent substrate) reflects the phosphorylation status of the receptor.
as §1, §2, §3, §4, §5

[2] = preincubation 30 minutes with 5 nM enzyme, read-out: Test A 30′ IC50
[3] = preincubation 90 minutes with 5 nM enzyme, read-out: Test A 90′ IC50

IC50 [1, 2] | IC50 (IGF-1R in MCF7 cells) | IC50 [1, 3] | Structure (SMILES) | IC50 (MEF-IGF1R cells)
> 0.1 µM | > 0.1 µM |  | CC1(C)C(=O)N(c2ccc(SC(F)(F)F)cc2)C(=O)N1Cc1ccnc(NC(=O)c2cc(Cl)cc(Cl)c2)c1 [Example 6, 3,5-dichloro-N-{4-[(5,5-dimethyl-2,4-dioxo-3-{4-[(trifluoromethyl)thio]phenyl}imidazolidin-1-yl)methyl]pyridin-2-yl}benzamide] | < 0.01 µM
> 0.1 µM | > 0.1 µM | 0.01 to 0.1 µM | Cc1ccc(F)c(C(=O)Nc2cc(CN3C(=O)N(c4ccc(SC(F)(F)F)cc4)C(=O)C3(C)C)ccn2)c1Cl [Example 7, 2-chloro-N-{4-[(5,5-dimethyl-2,4-dioxo-3-{4-[(tri-fluoromethyl)thio]phenyl}imidazolidin-1-yl)methyl]pyridin-2-yl}-6-fluoro-3-methylbenzamide] | 0.01 to 0.1 µM
0.01 to 0.1 µM | < 0.01 µM | < 0.01 µM | CN(C)C(=O)c1cccc(Nc2cc(CN3C(=O)N(c4ccc(SC(F)(F)F)cc4)C(=O)C3(C)C)ccn2)c1 [Example 8, 3-({4-[(5,5-dimethyl-2,4-dioxo-3-{4-[(trifluoro-methyl)thio]phenyl}imidazolidin-1-yl)methyl]pyridin-2-yl}amino)-N,N-dimethylbenzamide] | 0.01 to 0.1 µM
> 0.1 µM | > 0.1 µM | 0.01 to 0.1 µM | C[C@H](CO)Nc1nccc(CN2C(=O)N(c3ccc(S(=O)(=O)C(F)(F)F)cc3)C(=O)C2(C)C)n1 [Example 9, 1-[(2-{[(1R)-2-hydroxy-1-methylethyl]amino}-pyrimidin-4-yl)methyl]-5,5-dimethyl-3-{4-[(trifluoromethyl)-sulfonyl]phenyl}imidazolidine-2,4-dione] | 0.01 to 0.1 µM
0.01 to 0.1 µM | < 0.01 µM | < 0.01 µM | CC1(C)C(=O)N(c2ccc(SC(F)(F)F)cc2)C(=O)N1Cc1ccnc(Nc2cccnc2)n1 [Example 11, 5,5-dimethyl-1-{[2-(pyridin-3-ylamino)pyrimidin-4-yl]methyl}-3-{4-[(trifluoromethyl)thio]phenyl}imidazolidine-2,4-dione] | < 0.01 µM
> 0.1 µM | > 0.1 µM | > 0.1 µM | CC1(C)C(=O)N(c2ccc(SC(F)(F)F)cc2)C(=O)N1Cc1ccnc(Nc2cncnc2)c1 [Example 14, 5,5-dimethyl-1-{[2-(pyrimidin-5-ylamino)pyridin-4-yl]methyl}-3-{4-[(trifluoromethyl)thio]phenyl}imidazolidine-2,4-dione] | > 0.1 µM
0.01 to 0.1 µM | 0.01 to 0.1 µM | 0.01 to 0.1 µM | CC1(C)C(=O)N(c2ccc(SC(F)(F)F)cc2)C(=O)N1Cc1ccnc(Nc2cncnc2)n1 [Example 15, 5,5-dimethyl-1-{[2-(pyrimidin-5-ylamino)pyrimidin-4-yl]methyl}-3-{4-[(trifluoromethyl)thio]phenyl}imidazolidine-2,4-dione] | > 0.1 µM
0.01 to 0.1 µM | 0.01 to 0.1 µM | 0.01 to 0.1 µM | CC1(C)C(=O)N(c2ccc(S(=O)(=O)C(F)(F)F)cc2)C(=O)N1Cc1ccnc(Nc2cncnc2)n1 [Example 16, 5,5-dimethyl-1-{[2-(pyrimidin-5-ylamino)pyrimidin-4-yl]methyl}-3-{4-[(trifluoromethyl)sulfonyl]phenyl}imidazolidine-2,4-dione] | > 0.1 µM
0.01 to 0.1 µM | 0.01 to 0.1 µM | 0.01 to 0.1 µM | CCOC(=O)Nc1cc(CN2C(=O)N(c3ccc(SC(F)(F)F)cc3)C(=O)C2(C)C)ccn1 [Example 18 Stage a), ethyl {4-[(5,5-dimethyl-2,4-dioxo-3-{4-[(trifluoromethyl)thio]phenyl}imidazolidin-1-yl)methyl]pyridin-2-yl}carbamate] | 0.01 to 0.1 µM
0.01 to 0.1 µM | 0.01 to 0.1 µM | 0.01 to 0.1 µM | CC1(C)C(=O)N(c2ccc(SC(F)(F)F)cc2)C(=O)N1Cc1ccnc(NC(=O)NCCCN2CCCC2)c1 [Example 18, 1-{4-[(5,5-dimethyl-2,4-dioxo-3-{4-[(trifluoro-methyl)thio]phenyl}imidazolidin-1-yl)methyl]pyridin-2-yl}-3-(3-pyrrolidin-1-ylpropyl)urea] | > 0.1 µM
0.01 to 0.1 µM | < 0.01 µM | 0.01 to 0.1 µM | CC1(C)C(=O)N(c2ccc(SC(F)(F)F)cc2)C(=O)N1Cc1ccnc(NC(=O)NC2CCCC2)c1 [Example 19, 1-cyclopentyl-3-{4-[(5,5-dimethyl-2,4-dioxo-3-{4-[(trifluoromethyl)thio]phenyl}imidazolidin-1-yl)methyl]pyridin-2-yl}urea] | 0.01 to 0.1 µM
> 0.1 µM | > 0.1 µM | > 0.1 µM | CC1(C)C(=O)N(c2ccc(SC(F)(F)F)cc2)C(=O)N1Cc1ccnc(NC(=O)NCCN2CCCC2)c1 [Example 20, 1-{4-[(5,5-dimethyl-2,4-dioxo-3-{4-[(trifluoro-methyl)thio]phenyl}imidazolidin-1-yl)methyl]pyridin-2-yl}-3-(2-pyrrolidin-1-ylethyl)urea] | > 0.1 µM
0.01 to 0.1 µM | 0.01 to 0.1 µM | 0.01 to 0.1 µM | CC1(C)C(=O)N(c2ccc(SC(F)(F)F)cc2)C(=O)N1Cc1ccnc(NC(=O)NCCCCN2CCCC2)c1 [Example 21, 1-{4-[(5,5-dimethyl-2,4-dioxo-3-{4-[(trifluoro-methyl)thio]phenyl}imidazolidin-1-yl)methyl]pyridin-2-yl}-3-(4-pyrrolidin-1-ylbutyl)urea] | > 0.1 µM
0.01 to 0.1 µM | 0.01 to 0.1 µM | 0.01 to 0.1 µM | CC1(C)C(=O)N(c2ccc(SC(F)(F)F)cc2)C(=O)N1Cc1ccnc(NC(=O)NC2CC2)c1 [Example 22, 1-cyclopropyl-3-{4-[(5,5-dimethyl-2,4-dioxo-3-{4-[(trifluoromethyl)thio]phenyl}imidazolidin-1-yl)methyl]pyridin-2-yl}urea] | 0.01 to 0.1 µM
0.01 to 0.1 µM | 0.01 to 0.1 µM | 0.01 to 0.1 µM | CC1(C)C(=O)N(c2ccc(SC(F)(F)F)cc2)C(=O)N1Cc1ccnc(NC(=O)NC2CCC2)c1 [Example 23, 1-cyclobutyl-3-{4-[(5,5-dimethyl-2,4-dioxo-3-{4-[(trifluoromethyl)thio]phenyl}imidazolidin-1-yl)methyl]pyridin-2-yl}urea] | 0.01 to 0.1 µM
